US8946269B2, “Crystalline forms of a factor Xa inhibitor” (Portola Pharmaceuticals, Inc., priority 2010, dated 2015)

Columns and labels:
Type in all cases: physicochemical
[1] = Physical and chemical stability on storage
Source text: FIG. 10 provides XRPD patterns from turnover experiments. A is an XRPD of Form II.

[2] = Solubility at 25° C. (slurried in solvent 24 hours, liquid quantified by HPLC)
Source text: Solids were checked by XRPD and the liquid was submitted for quantification by HPLC.

pKa determination = conditions: amidine
Method: This can be performed on a Sirius GlpKa instrument with a D-PAS attachment. Measurements can be made by UV in aqueous and by potentiometric in methanol and water mixtures at 25° C. The titration media is ionic strength adjusted with 0.15 M KCl. The values found in the methanol and water mixtures are corrected to 0% co-solvent via a Yasuda-Shedlovsky extrapolation. The data can be refined using Refinement Pro software version 1.0. Prediction of pKa values can be made using ACD pKa prediction software Ver. 8.08.

time remaining physically and chemically stable ([1]; 25° C. and 60% RH)	time remaining physically and chemically stable ([1]; 40° C. and 75% RH)	Solubility at 25° C. ([2]; Acetone)	Solubility at 25° C. ([2]; Anhydrous ethanol (0.03% water))	Solubility at 25° C. ([2]; DMF)	Solubility at 25° C. ([2]; IPA)	Solubility at 25° C. ([2]; MTBE)	Solubility at 25° C. ([2]; MeOH, yellow solvate formed)	Solubility at 25° C. ([2]; in ethanol (summary table), listed as Betrixaban Maleate Form II)	pKa (pKa determination)	SMILES
at least 6 months	at least 6 months	0.99	4.8	>246	0.63	0.01	37.9 (yellow	4.8 mg/mL in ethanol		COc1ccc(NC(=O)c2ccc(C(=N)N(C)C)cc2)c(C(=O)Nc2ccc(Cl)cn2)c1 [Form II]
						0.001			11.4	COc1ccc(NC(=O)c2ccc(C(=N)N(C)C)cc2)c(C(=O)Nc2ccc(Cl)cn2)c1 [Form I, reference compound]
